Values after ≈ are worked out from the molar mass of the structure shown. Like-named read-outs stand apart in the source and are kept apart here.
Experiments:
Type in all cases: cell-based
M. canis = test: Susceptibility of dermatophytes, broth microdilution NCCLS M38-P; details: for MIC: Microsporum canis
Procedure: (§1) Isolates were tested using the method described in the National Committee for Clinical Laboratory Standards (NCCLS) document M38-P for filamentous fungi, with dermatophyte specific modifications described by Fernández-Torres et al, Current topics in Medical Mycology, 14-19 Feb. 1999.
(§2) Five dermatophyte isolates were, namely; T. rubrum, T. mentagrophytes, T. tonsurans, M. canis and M. gypseum, all of which produce lipases and some, phospholipase. These isolates were tested by the broth microdilution method according to NCCLS document M38-P, for activity against selected antifungal agents. In addition, ten randomly selected isolates of T. tonsurans were also tested. All isolates were maintained on SDA at 28° C. Candida parapsilosis (ATCC 20019) was used as the reference control is organism.
(§3) The microdilution plates used were a single lot of RPMI 1640 basal medium (JRH bioScience Inc. Lenexa, Kans., USA) with L-glutamine and without sodium bicarbonate, buffered to pH 7.0, at 25° C., with 0.165 M (MOPS) morpholinepropanesulfonic acid (Sigma).
(§4) Powdered drugs were dissolved in 100% dimethyl sulfoxide (DMSO), at concentrations 100 times higher than the final test concentration. All compounds were prepared in 100% (DMSO). For ITRA and TRB, two-fold drug dilutions were prepared in 100% DMSO at 100 times the final concentration, followed by further dilution 1:50 in RPMI medium, to yield 2× the final strength required for the test.
(§5) Fungal cultures were subcultured onto Potato Dextrose Agar and grown at 28° C. for 7-10 days. Fungal suspensions were covered with 5 ml of distilled water, and then colonies were scraped off with cotton tipped swabs. The resulting mixture of conidia and hyphae elements was withdrawn, transferred to a sterile tube and then vortexed with glass beads. After the particles settled, the upper homogeneous suspension was collected and its density adjusted by a densitometer to a 0.5 McFarland standard at the wavelength of 530 nm (80-85% transmittance). These stock suspensions were then diluted 1:50 with RPMI medium to obtain final working inoculum concentration ranging from 0.3×10^4 to 9×10^4 CFU/ml. Inoculum quantification was performed by plating 100 μl of the 1:1000 dilution of the adjusted inoculum on SDA plates, incubated at 28° C., and after 7 days of incubation, the colonies were counted.
(§6) Testing was based on NCCLS M38-P document for testing filamentous moulds. Testing was carried out in sterile 96-well flat bottomed microtitre plate. Columns 1 and 3 to 12 were filled with 100 μl of RPMI medium, leaving column 2 unfilled. Columns 1, 2 and 3 were filled with 100 μl of 2× drug concentration. Serial dilutions were then made by transferring 100 μl from column 3 to each column up to column 11, and 100 μl from column 11 was discarded. Column 12 served as drug free growth control. Finally, 100 μl of inoculum suspension was added to all wells except column 1, which acted as sterility control (Columns 1 and 12 served as sterility and growth control respectively). Plates were incubated at 28° C. for 7 days, and read at 3 days and 7 days of incubation. All testing was performed in duplicate, on three separate occasions.
(§7) Growth in microtitre trays were read by visual inspection by using an illuminated-reversed mirror. Growth in each well was compared with the “growth control” drug free well. The MIC end point for all the drugs was chosen to be the first well with 100% growth inhibition (i.e. the lowest drug concentration inhibiting growth).

M. gypseum = test: as above; details: for MIC: Nannizzia gypsea
Procedure: as §1, §2, §3, §4, §5, §6, §7

T. mentagrophytes = test: as above; details: 100% growth inhibition, 28° C.; for MIC: Trichophyton mentagrophytes
Procedure: as §1, §2, §3, §4, §5, §6, §7

T. rubrum = test: as above; details: for MIC: Trichophyton rubrum
Procedure: as §1, §2, §3, §4, §5, §6, §7

T. tonsurans = test: as above; details: for MIC: Trichophyton tonsurans
Procedure: as §1, §2, §3, §4, §5, §6, §7

[1] = test system: ten randomly selected isolates of T. tonsurans; test: Susceptibility of ten T. tonsurans isolates, broth microdilution NCCLS M38-P; details: for MIC: Trichophyton tonsurans
Procedure: as §1, §2, §3, §4, §5, §6, §7

[2] = 100% growth inhibition, 28° C., read-out: MIC GM, M. canis
[3] = 100% growth inhibition, 28° C., read-out: MIC Mean, M. canis
[4] = 100% growth inhibition, 28° C., read-out: MIC GM, M. gypseum
[5] = 100% growth inhibition, 28° C., read-out: MIC Mean, M. gypseum
[6] = read-out: MIC GM, T. mentagrophyte
[7] = read-out: MIC Mean, T. mentagrophyte
[8] = 100% growth inhibition, 28° C., read-out: MIC GM, T. rubrum
[9] = 100% growth inhibition, 28° C., read-out: MIC Mean, T. rubrum
[10] = 100% growth inhibition, 28° C., read-out: MIC GM, T. tonsurans
[11] = 100% growth inhibition, 28° C., read-out: MIC Mean, T. tonsurans
[12] = T. tonsurans 1, read-out: MIC GM
[13] = T. tonsurans 2, read-out: MIC GM
[14] = T. tonsurans 2, read-out: MIC Mean
[15] = T. tonsurans 4, read-out: MIC Mean
[16] = T. tonsurans 5, read-out: MIC GM
[17] = T. tonsurans 5, read-out: MIC Mean
[18] = T. tonsurans 6, read-out: MIC GM
[19] = T. tonsurans 6, read-out: MIC Mean
[20] = T. tonsurans 7, read-out: MIC GM
[21] = T. tonsurans 7, read-out: MIC Mean
[22] = T. tonsurans 8, read-out: MIC GM
[23] = T. tonsurans 8, read-out: MIC Mean
[24] = T. tonsurans 9, read-out: MIC GM
[25] = T. tonsurans 9, read-out: MIC Mean
[26] = T. tonsurans 10, read-out: MIC Mean
[27] = T.tonsurans 3, read-out: MIC GM
[28] = T.tonsurans 3, read-out: MIC Mean
[29] = read-out: MIC Mean, T. tonsurans 1

## CCC(C)n1ncn(-c2ccc(N3CCN(c4ccc(OCC5COC(Cn6cncn6)(c6ccc(Cl)cc6Cl)O5)cc4)CC3)cc2)c1=O (centres unmarked) [Itraconazole]
M. canis; 100% growth inhibition, 28° C.
  MIC Range, M. canis: 0.125 to 2.0 µg/mL
M. canis; [2]
  MIC: 0.42 µg/mL (≈ 0.595 µM)
M. canis; [3]
  MIC: 0.63 µg/mL (≈ 0.893 µM)
M. canis; Table 9, read-out: MIC M. canis
  MIC: 0.6 µg/mL (≈ 0.85 µM)
M. gypseum; 100% growth inhibition, 28° C.
  MIC Range, M. gypseum: 0.25 to 2.0 µg/mL
M. gypseum; [4]
  MIC: 0.74 µg/mL (≈ 1.05 µM)
M. gypseum; [5]
  MIC: 0.93 µg/mL (≈ 1.32 µM)
M. gypseum; Table 9, read-out: MIC M. gypseum
  MIC: 0.9 µg/mL (≈ 1.28 µM)
T. mentagrophytes
  MIC Range, T. mentagrophyte: 0.06 to 1.0 µg/mL
T. mentagrophytes; [6]
  MIC: 0.26 µg/mL (≈ 0.368 µM)
T. mentagrophytes; [7]
  MIC: 0.355 µg/mL (≈ 0.503 µM)
T. rubrum; 100% growth inhibition, 28° C.
  MIC Range, T. rubrum: 0.03 to 1.0 µg/mL
T. rubrum; [8]
  MIC: 0.171 µg/mL (≈ 0.242 µM)
T. rubrum; [9]
  MIC: 0.276 µg/mL (≈ 0.391 µM)
T. rubrum; Table 9, read-out: MIC T. rubrum
  MIC: 0.3 µg/mL (≈ 0.425 µM)
T. tonsurans; 100% growth inhibition, 28° C.
  MIC Range, T. tonsurans: 0.25 to 2.0 µg/mL
T. tonsurans; [10]
  MIC: 0.84 µg/mL (≈ 1.19 µM)
T. tonsurans; [11]
  MIC: 1.06 µg/mL (≈ 1.5 µM)
T. tonsurans; Table 9, read-out: MIC T. tonsurans
  MIC: 1.1 µg/mL (≈ 1.56 µM)
[1]; T. tonsurans 1
  MIC Range: 0.03 to 0.125 µg/mL
[1]; T. tonsurans 2
  MIC Range: 0.125 to 2.0 µg/mL
[1]; T. tonsurans 4
  MIC Range: 0.5 µg/mL (≈ 0.709 µM)
[1]; T. tonsurans 5
  MIC Range: 0.25 to 0.5 µg/mL
[1]; T. tonsurans 6
  MIC Range: 0.25 to 2.0 µg/mL
[1]; T. tonsurans 7
  MIC Range: 0.5 to 1.0 µg/mL
[1]; T. tonsurans 8
  MIC Range: 0.25 to 2.0 µg/mL
[1]; T. tonsurans 9
  MIC Range: 0.125 to 1.0 µg/mL
[1]; T. tonsurans 10
  MIC Range: 0.25 to 1.0 µg/mL
[1]; T.tonsurans 3
  MIC Range: 0.06 to 0.5 µg/mL
[1]; [12]
  MIC: 0.12 µg/mL (≈ 0.17 µM)
[1]; [13]
  MIC: 0.397 µg/mL (≈ 0.563 µM)
[1]; [14]
  MIC: 0.604 µg/mL (≈ 0.856 µM)
[1]; T. tonsurans 4, read-out: MIC GM
  MIC: 0.5 µg/mL (≈ 0.709 µM)
[1]; [15]
  MIC: 0.5 µg/mL (≈ 0.709 µM)
[1]; [16]
  MIC: 0.44 µg/mL (≈ 0.624 µM)
[1]; [17]
  MIC: 0.46 µg/mL (≈ 0.652 µM)
[1]; [18]
  MIC: 0.71 µg/mL (≈ 1.01 µM)
[1]; [19]
  MIC: 0.96 µg/mL (≈ 1.36 µM)
[1]; [20]
  MIC: 0.56 µg/mL (≈ 0.794 µM)
[1]; [21]
  MIC: 0.58 µg/mL (≈ 0.822 µM)
[1]; [22]
  MIC: 0.79 µg/mL (≈ 1.12 µM)
[1]; [23]
  MIC: 1.08 µg/mL (≈ 1.53 µM)
[1]; [24]
  MIC: 0.445 µg/mL (≈ 0.631 µM)
[1]; [25]
  MIC: 0.52 µg/mL (≈ 0.737 µM)
[1]; T. tonsurans 10, read-out: MIC GM
  MIC: 0.445 µg/mL (≈ 0.631 µM)
[1]; [26]
  MIC: 0.5 µg/mL (≈ 0.709 µM)
[1]; [27]
  MIC: 0.196 µg/mL (≈ 0.278 µM)
[1]; [28]
  MIC: 0.27 µg/mL (≈ 0.383 µM)
[1]; [29]
  MIC: 0.21 µg/mL (≈ 0.298 µM)

## CN(C/C=C/C#CC(C)(C)C)Cc1cccc2ccccc12 [Terbinafine]
M. canis; 100% growth inhibition, 28° C.
  MIC Range, M. canis: 0.03 µg/mL (≈ 0.103 µM)
M. canis; [2]
  MIC: 0.03 µg/mL (≈ 0.103 µM)
M. canis; [3]
  MIC: 0.03 µg/mL (≈ 0.103 µM)
M. gypseum; 100% growth inhibition, 28° C.
  MIC Range, M. gypseum: 0.015 to 0.25 µg/mL
M. gypseum; [4]
  MIC: 0.077 µg/mL (≈ 0.264 µM)
M. gypseum; [5]
  MIC: 0.122 µg/mL (≈ 0.419 µM)
T. mentagrophytes
  MIC Range, T. mentagrophyte: 0.03 to 0.06 µg/mL
T. mentagrophytes; [6]
  MIC: 0.034 µg/mL (≈ 0.117 µM)
T. mentagrophytes; [7]
  MIC: 0.035 µg/mL (≈ 0.12 µM)
T. rubrum; 100% growth inhibition, 28° C.
  MIC Range, T. rubrum: 0.007 to 0.06 µg/mL
T. rubrum; [8]
  MIC: 0.026 µg/mL (≈ 0.0892 µM)
T. rubrum; [9]
  MIC: 0.032 µg/mL (≈ 0.11 µM)
T. tonsurans; 100% growth inhibition, 28° C.
  MIC Range, T. tonsurans: 0.015 to 0.06 µg/mL
T. tonsurans; [10]
  MIC: 0.024 µg/mL (≈ 0.0824 µM)
T. tonsurans; [11]
  MIC: 0.03 µg/mL (≈ 0.103 µM)
[1]; T. tonsurans 1
  MIC Range: 0.015 to 0.06 µg/mL
[1]; T. tonsurans 2
  MIC Range: 0.015 to 0.06 µg/mL
[1]; T. tonsurans 4
  MIC Range: 0.015 to 0.06 µg/mL
[1]; T. tonsurans 5
  MIC Range: 0.03 to 0.06 µg/mL
[1]; T. tonsurans 6
  MIC Range: 0.03 to 0.125 µg/mL
[1]; T. tonsurans 7
  MIC Range: 0.015 to 0.06 µg/mL
[1]; T. tonsurans 8
  MIC Range: 0.06 to 0.125 µg/mL
[1]; T. tonsurans 9
  MIC Range: 0.06 to 0.125 µg/mL
[1]; T. tonsurans 10
  MIC Range: 0.015 to 0.06 µg/mL
[1]; T.tonsurans 3
  MIC Range: 0.015 to 0.125 µg/mL
[1]; [12]
  MIC: 0.034 µg/mL (≈ 0.117 µM)
[1]; [13]
  MIC: 0.036 µg/mL (≈ 0.124 µM)
[1]; [14]
  MIC: 0.041 µg/mL (≈ 0.141 µM)
[1]; [15]
  MIC: 0.0275 µg/mL (≈ 0.0944 µM)
[1]; [16]
  MIC: 0.048 µg/mL (≈ 0.165 µM)
[1]; [17]
  MIC: 0.05 µg/mL (≈ 0.172 µM)
[1]; [18]
  MIC: 0.061 µg/mL (≈ 0.209 µM)
[1]; [19]
  MIC: 0.071 µg/mL (≈ 0.244 µM)
[1]; [20]
  MIC: 0.038 µg/mL (≈ 0.13 µM)
[1]; [21]
  MIC: 0.045 µg/mL (≈ 0.154 µM)
[1]; [22]
  MIC: 0.068 µg/mL (≈ 0.233 µM)
[1]; [23]
  MIC: 0.07 µg/mL (≈ 0.24 µM)
[1]; [24]
  MIC: 0.077 µg/mL (≈ 0.264 µM)
[1]; [25]
  MIC: 0.081 µg/mL (≈ 0.278 µM)
[1]; [26]
  MIC: 0.035 µg/mL (≈ 0.12 µM)
[1]; [27]
  MIC: 0.038 µg/mL (≈ 0.13 µM)
[1]; [28]
  MIC: 0.051 µg/mL (≈ 0.175 µM)
[1]; [29]
  MIC: 0.037 µg/mL (≈ 0.127 µM)
